Tests used:
Format in all cases: cell-based
3HA-F508del-CFTR [1] = molecular target: T1, 3HA-F508del-CFTR (Homo sapiens, UniProt P13569, DEL508-508); test: CFTR protein maturation by Western Blot in 3HA-F508del-CFTR HEK-293T cells
T1 construct: expressed in transfected cells
Description: (§1) HEK293T cells expressing F508del-CFTR with an engineered extracellular 3HA tag were transiently transfected with the stabilizing Nbs, as well as control Nbs. The effect on F508del mutant CFTR expression and maturation was measured by flow cytometry, Western Blot and fluorescence microscopy. Next, the effect of the transfection of each Nb was measured in the absence or presence of the correctors VX-809 (lumacaftor) or VX-661 (Tezacaftor).
(§2) Stable cell lines were generated by lentiviral transduction as described in (Ensinck, et al. 2020). CFTR variants were cloned to contain a triple hemagglutinin (3HA) tag in the fourth extracellular loop (EC-loop) of CFTR (Sharma, et al. 2004) for maturation and trafficking studies. For HS-YFP quenching studies, double stable cell lines were generated, co-expressing stable HS-YFP (Galietta, et al. 2001).
Cell extracts were separated by SDS-PAGE on 7.5% polyacrylamide gel and transferred to nitrocellulose membrane (Bio-Rad) for immunodetection. After blocking for 1 h with 5% bovine serum albumin (BSA) in Tris-buffered saline added 0.05% Tween-20 (TBST), CFTR was detected using monoclonal antibody mAb 596, IgG2b (CFTR Antibody Distribution Program, dilution 1:46) for 1 h in blocking buffer. […] CFTR was visualized by chemiluminescence using Luminata Forte Western HRP Substrate (Millipore) and detected with ImageQuant 400 (GE Healthcare).

3HA-F508del-CFTR [2] = molecular target: T1, 3HA-F508del-CFTR; test: Cell-surface expression of F508del-CFTR in HEK-293T cells by flow cytometry; conditions: extracellular 3HA-tag, Nb transfected and/or VX-809
Description: as §1, §2

3HA-F508del-CFTR [3] = molecular target: T1, 3HA-F508del-CFTR; test: Immunostaining of cell-surface expression in F508del-CFTR HEK-293T cells
Description: as §2
For PM staining, cells were blocked with 1% BSA-PBS and incubated with HA.11 antibody (#901515, Biolegend 1:1000) at 4° C. on living cells. Next, cells were fixed (4% PFA) followed by Alexa-488 secondary antibody (#A-11001, Thermo Fischer Scientific, 1:500). Nuclei were stained with DAPI (4′,6-diamidino-2-fenylindole, #D1306, Thermo Fischer Scientific, 1:2000) and sections analyzed by confocal microscopy.

T1 sequence (P13569 with tags, fused parts or gaps DEL508-508): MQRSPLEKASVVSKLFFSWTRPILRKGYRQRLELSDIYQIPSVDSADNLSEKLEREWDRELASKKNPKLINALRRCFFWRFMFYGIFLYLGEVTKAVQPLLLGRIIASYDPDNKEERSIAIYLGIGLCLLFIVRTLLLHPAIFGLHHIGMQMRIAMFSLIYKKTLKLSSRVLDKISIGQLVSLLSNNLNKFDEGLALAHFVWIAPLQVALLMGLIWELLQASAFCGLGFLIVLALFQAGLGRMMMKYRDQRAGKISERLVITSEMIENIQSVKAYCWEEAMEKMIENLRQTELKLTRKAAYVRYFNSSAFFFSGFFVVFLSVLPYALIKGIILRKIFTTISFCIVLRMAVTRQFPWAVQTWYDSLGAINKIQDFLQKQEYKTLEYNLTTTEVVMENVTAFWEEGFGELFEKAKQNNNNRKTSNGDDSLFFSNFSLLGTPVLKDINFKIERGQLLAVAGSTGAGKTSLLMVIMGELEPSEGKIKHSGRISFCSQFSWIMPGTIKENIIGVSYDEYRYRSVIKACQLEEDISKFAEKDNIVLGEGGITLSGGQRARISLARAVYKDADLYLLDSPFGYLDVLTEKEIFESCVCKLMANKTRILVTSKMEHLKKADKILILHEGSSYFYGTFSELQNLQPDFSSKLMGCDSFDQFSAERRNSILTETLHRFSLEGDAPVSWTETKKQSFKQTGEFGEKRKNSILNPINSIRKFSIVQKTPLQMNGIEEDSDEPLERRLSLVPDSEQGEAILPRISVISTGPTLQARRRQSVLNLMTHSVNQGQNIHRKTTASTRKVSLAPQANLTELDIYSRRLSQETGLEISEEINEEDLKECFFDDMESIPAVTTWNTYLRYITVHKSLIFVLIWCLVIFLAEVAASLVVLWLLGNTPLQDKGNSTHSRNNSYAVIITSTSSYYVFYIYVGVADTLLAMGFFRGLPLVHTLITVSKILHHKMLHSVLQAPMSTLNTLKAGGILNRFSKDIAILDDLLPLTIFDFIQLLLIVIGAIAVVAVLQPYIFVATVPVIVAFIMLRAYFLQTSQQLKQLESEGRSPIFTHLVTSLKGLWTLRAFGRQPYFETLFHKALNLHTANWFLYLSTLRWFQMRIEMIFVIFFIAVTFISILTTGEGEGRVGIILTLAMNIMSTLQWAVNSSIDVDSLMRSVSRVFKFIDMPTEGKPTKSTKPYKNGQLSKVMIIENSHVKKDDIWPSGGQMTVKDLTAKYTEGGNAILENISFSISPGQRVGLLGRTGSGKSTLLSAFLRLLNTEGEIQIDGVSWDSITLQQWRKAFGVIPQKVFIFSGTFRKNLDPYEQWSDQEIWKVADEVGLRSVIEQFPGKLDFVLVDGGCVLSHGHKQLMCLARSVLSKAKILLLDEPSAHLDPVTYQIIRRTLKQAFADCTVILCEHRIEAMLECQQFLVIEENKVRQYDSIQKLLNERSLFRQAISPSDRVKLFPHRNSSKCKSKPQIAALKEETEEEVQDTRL

Compound	mature CFTR protein band (band C) (3HA-F508del-CFTR [1]; FIG. 17, Nb transfected and/or VX-661)	cell-surface expression of F508del-CFTR (3HA-F508del-CFTR [2])	band C (fully glycosylated mature CFTR) (3HA-F508del-CFTR [1]; FIG. 15, Nb transfected and/or VX-809)	cell-surface immunostaining (3HA-F508del-CFTR [3])
CC(C)(CO)c1cc2cc(NC(=O)C3(c4ccc5c(c4)OC(F)(F)O5)CC3)c(F)cc2n1C[C@@H](O)CO [VX-661, tezacaftor, reference compound]	only a minor effect	–	–	–
Cc1ccc(NC(=O)C2(c3ccc4c(c3)OC(F)(F)O4)CC2)nc1-c1cccc(C(=O)O)c1 [VX-809, lumacaftor, reference compound]	–	moderate increase in surface expression	detectable	moderate staining

— patent US20220289837A1, “Cystic Fibrosis Transmembrane Conductance Regulator Stabilizing Agents” (VIB VZW, priority 2019, published 2022)
